Source: ChEMBL document CHEMBL1201862, “PubChem BioAssay data set” (2004)
Active and inactive are the calls of the source.

Assays:
[1] = target: G-protein coupled receptor 35 (Homo sapiens, UniProt Q9HC97); assay: SAR analysis of Antagonists of the GPR35 Receptor using an Image-Based Assay - Set 5. [Related pubchem assays (depositor defined):AID2058, AID2079]; type: functional
[2] = target: G-protein coupled receptor 55 (Homo sapiens, UniProt Q9Y2T6); assay: SAR Analysis of Selective Antagonists of GPR55 using an Image-Based Assay - Set 3. [Related pubchem assays (depositor defined):AID2058, AID2079]; type: functional
G-protein coupled receptor 55, sequence (Q9Y2T6 whole entry): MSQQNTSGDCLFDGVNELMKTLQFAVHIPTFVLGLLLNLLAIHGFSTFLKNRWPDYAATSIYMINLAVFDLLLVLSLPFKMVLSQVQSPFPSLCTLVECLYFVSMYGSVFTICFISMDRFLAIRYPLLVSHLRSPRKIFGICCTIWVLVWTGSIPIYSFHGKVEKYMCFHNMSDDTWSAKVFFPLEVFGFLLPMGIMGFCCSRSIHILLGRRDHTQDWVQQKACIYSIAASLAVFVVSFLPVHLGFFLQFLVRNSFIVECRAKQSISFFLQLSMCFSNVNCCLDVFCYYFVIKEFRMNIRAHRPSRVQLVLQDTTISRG

[3] = luciferase reporter signal suppression in cells – H4 neuroglioma cells, luminescence, dose response (AID 1990); type: functional, cell-based
BJ [4] = assay: BJ-TERT fibroblast viability loss – cell-based, RAS-independent, luminescence, dose response (AID 1933); type: functional; settings: Homo sapiens
[5] = Luminescence Cell-Based Dose Response HTS to Identify Inhibitors of 5'UTR Stem-Loop Driven Prion Protein mRNA Translation in H4 Neuroglioblastoma Cells. [Related pubchem assays: 1827 (Project Summary), 1813 (Primary HTS)]; type: functional
[6] = alpha-synuclein stem-loop luciferase translation blockers – H4 neuroglioma cells, luminescence, confirmation (AID 1988); type: functional, cell-based
BJ [7] = assay: cells; type: functional, cell-based; settings: Homo sapiens
J774.A1 = assay: Confirmation of image-based Screening Assay for Inhibitors of Phagocytosis. [Related pubchem assays (depositor defined):AID1029, AID1643]; type: functional, cell-based; settings: Mus musculus
BJ [8] = assay: BJ-TERT-LT-ST fibroblast viability loss – cell-based, RAS-independent, luminescence, dose response (AID 1935); type: functional; settings: Homo sapiens;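 also: BJ fibroblasts immortalized with TERT plus LT and ST oncogenes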
[9] = DRD fibroblast viability loss – cell-based, non-viral oncogenic, luminescence, dose response (AID 1934); type: functional; settings: Homo sapiens
[10] = target: E3 ubiquitin-protein ligase Mdm2/Protein Mdm4 (Homo sapiens, UniProt O15151+Q00987); assay: disruption of Mdm2/MdmX protein binding – luminescence detection, dose response (AID 504593); type: functional
E3 ubiquitin-protein ligase Mdm2/Protein Mdm4, sequence (Q00987 whole entry): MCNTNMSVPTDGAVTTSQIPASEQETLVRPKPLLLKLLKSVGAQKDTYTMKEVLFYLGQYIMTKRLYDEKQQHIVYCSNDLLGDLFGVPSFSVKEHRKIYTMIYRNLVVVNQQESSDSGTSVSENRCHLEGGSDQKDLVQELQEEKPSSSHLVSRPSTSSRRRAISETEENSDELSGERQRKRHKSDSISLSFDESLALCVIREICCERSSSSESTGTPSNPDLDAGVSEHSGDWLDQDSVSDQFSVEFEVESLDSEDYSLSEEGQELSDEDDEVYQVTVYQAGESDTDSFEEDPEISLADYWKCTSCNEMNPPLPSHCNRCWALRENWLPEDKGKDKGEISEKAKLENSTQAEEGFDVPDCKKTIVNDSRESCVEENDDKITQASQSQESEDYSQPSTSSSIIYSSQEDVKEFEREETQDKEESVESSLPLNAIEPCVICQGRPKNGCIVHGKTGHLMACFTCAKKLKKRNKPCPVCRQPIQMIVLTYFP
E3 ubiquitin-protein ligase Mdm2/Protein Mdm4, sequence (O15151 whole entry): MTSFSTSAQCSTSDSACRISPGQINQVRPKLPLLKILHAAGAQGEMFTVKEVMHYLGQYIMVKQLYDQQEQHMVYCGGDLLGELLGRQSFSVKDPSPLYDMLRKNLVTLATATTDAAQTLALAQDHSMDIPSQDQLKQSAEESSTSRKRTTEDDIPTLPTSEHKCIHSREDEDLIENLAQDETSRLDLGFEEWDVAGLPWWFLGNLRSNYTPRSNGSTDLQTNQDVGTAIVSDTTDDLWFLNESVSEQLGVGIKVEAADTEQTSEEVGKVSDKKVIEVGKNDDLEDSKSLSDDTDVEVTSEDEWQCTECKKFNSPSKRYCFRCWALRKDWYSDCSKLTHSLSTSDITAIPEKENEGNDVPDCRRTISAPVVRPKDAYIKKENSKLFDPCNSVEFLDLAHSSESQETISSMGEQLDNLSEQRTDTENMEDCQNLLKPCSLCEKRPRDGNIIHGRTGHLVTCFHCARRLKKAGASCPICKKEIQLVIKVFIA

[11] = HEK-293T viability loss after treatment – luminescence, T-cell screen hits, cytotoxicity control for TCR NF-kB inhibitor project, dose response (AID 489026); type: functional, cell-based;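 also: cells exposed to compound about 14 hours before the viability readout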
[12] = target: T1, Replicative DNA helicase DnaB (Mycobacterium tuberculosis, UniProt P9WMR3); assay: DnaB intein splicing inhibitors, dose response, biochemical, cell-free fluorescence (AID 449749); type: functional
T1 sequence (P9WMR3 whole entry): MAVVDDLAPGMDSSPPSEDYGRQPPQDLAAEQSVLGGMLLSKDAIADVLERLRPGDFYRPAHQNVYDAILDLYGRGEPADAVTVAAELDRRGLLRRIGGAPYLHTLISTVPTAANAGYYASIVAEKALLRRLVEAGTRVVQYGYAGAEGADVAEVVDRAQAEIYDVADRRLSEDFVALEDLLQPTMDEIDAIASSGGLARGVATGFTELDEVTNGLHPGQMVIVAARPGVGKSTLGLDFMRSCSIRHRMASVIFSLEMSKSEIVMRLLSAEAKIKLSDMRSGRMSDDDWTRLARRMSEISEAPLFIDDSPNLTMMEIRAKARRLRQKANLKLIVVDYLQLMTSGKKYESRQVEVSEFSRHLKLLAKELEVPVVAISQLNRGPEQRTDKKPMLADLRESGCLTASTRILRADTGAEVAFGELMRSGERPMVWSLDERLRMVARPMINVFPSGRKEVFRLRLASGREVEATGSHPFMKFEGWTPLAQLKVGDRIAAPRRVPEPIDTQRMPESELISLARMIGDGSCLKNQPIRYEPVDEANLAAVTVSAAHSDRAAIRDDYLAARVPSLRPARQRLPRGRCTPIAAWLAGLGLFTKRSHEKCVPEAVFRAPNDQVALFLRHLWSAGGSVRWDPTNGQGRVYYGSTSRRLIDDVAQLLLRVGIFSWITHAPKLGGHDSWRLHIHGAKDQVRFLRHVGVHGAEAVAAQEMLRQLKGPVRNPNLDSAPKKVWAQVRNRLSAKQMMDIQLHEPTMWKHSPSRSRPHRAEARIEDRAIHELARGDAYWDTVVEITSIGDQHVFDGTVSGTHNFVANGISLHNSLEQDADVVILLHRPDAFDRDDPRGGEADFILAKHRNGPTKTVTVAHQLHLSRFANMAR

BJ [13] = assay: growth inhibition of engineered Ras-driven BJ cells – cell-based, alamar blue fluorescence, cherrypicked samples, dose response (AID 2631); type: functional; settings: Homo sapiens;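 also: confirmatory dose-response assay in RAS-dependent BJ fibroblasts engineered with TERT, LT and ST, with cytotoxicity read by fluorescence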
Protein RecA = target: T2, Protein RecA (Mycobacterium tuberculosis, UniProt P9WHJ3); assay: Fluorescence Cell-Free Homogeneous Dose Retest to Identify Inhibitors of RecA-Intein Splicing Activity. [Related pubchem assays (depositor defined):AID2097, AID2223, AID489010, AID492950]; type: functional
T2 sequence (P9WHJ3 whole entry): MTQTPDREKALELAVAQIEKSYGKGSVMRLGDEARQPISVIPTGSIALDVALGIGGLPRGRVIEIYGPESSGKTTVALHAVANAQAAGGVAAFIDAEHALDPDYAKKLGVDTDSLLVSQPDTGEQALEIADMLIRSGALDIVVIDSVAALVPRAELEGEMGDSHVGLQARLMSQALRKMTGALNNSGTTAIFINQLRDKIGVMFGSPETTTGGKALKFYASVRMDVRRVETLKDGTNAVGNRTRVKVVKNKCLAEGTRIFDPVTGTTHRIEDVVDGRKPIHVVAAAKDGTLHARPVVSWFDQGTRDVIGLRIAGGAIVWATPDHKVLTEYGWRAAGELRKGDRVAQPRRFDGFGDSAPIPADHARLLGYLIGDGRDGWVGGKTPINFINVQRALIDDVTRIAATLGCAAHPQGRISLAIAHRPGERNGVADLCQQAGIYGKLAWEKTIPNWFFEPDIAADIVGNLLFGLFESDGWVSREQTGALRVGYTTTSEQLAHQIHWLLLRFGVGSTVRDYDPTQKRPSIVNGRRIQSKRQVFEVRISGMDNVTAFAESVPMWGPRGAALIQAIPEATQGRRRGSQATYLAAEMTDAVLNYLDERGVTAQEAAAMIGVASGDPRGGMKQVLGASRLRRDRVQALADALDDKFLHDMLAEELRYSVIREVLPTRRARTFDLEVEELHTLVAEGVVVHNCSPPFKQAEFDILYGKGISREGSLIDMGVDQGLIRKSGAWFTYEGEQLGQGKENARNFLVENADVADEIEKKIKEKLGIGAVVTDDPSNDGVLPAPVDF

Saccharomyces cerevisiae = assay: S. cerevisiae Caspase-1/ASC signal blockers IC50, NALP1 inhibitor project selectivity test (AID 488863); type: functional, organism-based
[14] = target: NACHT, LRR and PYD domains-containing protein 1 (Homo sapiens, UniProt Q9C000); assay: NALP1 inhibitors in yeast, dose response, luminescent (AID 488860); type: functional
NACHT, LRR and PYD domains-containing protein 1, sequence (Q9C000 1-1212 limits assumed): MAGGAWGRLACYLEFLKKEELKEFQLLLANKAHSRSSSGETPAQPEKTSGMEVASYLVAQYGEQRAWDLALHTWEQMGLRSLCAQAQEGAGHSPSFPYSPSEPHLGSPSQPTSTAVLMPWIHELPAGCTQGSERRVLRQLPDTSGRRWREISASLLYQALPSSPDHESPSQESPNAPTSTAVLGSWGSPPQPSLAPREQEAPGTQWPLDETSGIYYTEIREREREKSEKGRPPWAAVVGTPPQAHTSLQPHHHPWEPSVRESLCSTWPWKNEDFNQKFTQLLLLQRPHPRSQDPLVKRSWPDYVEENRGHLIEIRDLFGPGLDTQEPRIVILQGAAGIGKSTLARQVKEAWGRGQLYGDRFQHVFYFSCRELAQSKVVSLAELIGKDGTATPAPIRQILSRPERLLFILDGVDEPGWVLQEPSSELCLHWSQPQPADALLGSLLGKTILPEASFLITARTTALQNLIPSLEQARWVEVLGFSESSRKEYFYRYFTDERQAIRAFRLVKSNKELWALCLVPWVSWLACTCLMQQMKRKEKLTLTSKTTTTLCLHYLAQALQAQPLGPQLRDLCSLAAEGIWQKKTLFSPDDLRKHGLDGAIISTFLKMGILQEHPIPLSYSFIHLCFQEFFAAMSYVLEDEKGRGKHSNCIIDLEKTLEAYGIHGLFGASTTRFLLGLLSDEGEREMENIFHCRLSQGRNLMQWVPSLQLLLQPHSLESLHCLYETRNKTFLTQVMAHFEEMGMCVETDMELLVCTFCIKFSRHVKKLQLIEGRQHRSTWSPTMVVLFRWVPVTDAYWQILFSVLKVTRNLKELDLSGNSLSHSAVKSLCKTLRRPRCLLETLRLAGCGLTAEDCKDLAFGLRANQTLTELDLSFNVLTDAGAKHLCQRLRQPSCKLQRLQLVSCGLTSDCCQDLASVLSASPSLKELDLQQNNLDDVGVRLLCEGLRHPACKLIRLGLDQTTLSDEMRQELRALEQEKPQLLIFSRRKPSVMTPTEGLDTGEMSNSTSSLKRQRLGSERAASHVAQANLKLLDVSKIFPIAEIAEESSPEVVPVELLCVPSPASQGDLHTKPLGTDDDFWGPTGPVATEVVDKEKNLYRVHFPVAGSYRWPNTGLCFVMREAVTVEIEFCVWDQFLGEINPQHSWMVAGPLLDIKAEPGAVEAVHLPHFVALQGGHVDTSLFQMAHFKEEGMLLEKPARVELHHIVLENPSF
NACHT, LRR and PYD domains-containing protein 1, sequence (Q9C000 1213-1473 limits assumed): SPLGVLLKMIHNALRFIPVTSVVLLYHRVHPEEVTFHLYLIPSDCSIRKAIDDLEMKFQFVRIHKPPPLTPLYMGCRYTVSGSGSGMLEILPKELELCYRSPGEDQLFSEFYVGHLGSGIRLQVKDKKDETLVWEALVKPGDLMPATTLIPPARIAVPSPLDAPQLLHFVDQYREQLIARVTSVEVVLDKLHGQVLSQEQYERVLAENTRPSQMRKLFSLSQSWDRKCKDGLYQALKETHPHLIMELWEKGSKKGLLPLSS

[15] = NIH-3T3 fibroblast cytotoxicity, dose response, cytotoxicity control, cell-based, fluorescence, Alamar Blue, secondary assay (AID 2327); type: functional;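 also: NIH-3T3 mouse fibroblasts cultured with fluconazole at 8 µg/mL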
[16] = fluconazole-exposed Candida albicans growth modulators – fluorescence, retest, confirmation (AID 2467); type: functional, cell-based
[17] = target: T3, Mannose-6-phosphate isomerase (Homo sapiens, UniProt P34949); assay: MPI enzyme activity inhibition – biochemical, fluorescence intensity, coupled assay, primary screen (AID 1209)
T3 sequence (P34949 whole entry): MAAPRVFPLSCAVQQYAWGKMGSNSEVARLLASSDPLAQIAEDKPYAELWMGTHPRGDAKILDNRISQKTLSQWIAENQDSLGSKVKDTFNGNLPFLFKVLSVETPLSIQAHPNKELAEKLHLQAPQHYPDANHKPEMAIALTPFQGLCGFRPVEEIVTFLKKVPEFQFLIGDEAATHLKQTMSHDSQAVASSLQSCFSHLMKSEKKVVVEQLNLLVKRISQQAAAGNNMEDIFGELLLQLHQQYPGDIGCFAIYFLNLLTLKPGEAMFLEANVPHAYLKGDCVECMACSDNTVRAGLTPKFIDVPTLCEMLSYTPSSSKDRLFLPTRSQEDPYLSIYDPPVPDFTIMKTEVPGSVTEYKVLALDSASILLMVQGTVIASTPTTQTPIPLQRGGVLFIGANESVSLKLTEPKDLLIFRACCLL

[18] = target: T3, Mannose-6-phosphate isomerase; assay: MPI inhibition at elevated mannose 6-phosphate – biochemical, fluorescence intensity, high mannose 6-phosphate, primary screen (AID 1220)
Beta-galactosidase = Beta-galactosidase (Escherichia coli, UniProt Q8VNN2); assay: detection-enzyme interference by beta-gal modulators – biochemical, E. coli enzyme, set 3, artefact control for CCR6 antagonist project, dose response (AID 504712); type: functional
Beta-galactosidase, sequence (Q8VNN2 whole entry): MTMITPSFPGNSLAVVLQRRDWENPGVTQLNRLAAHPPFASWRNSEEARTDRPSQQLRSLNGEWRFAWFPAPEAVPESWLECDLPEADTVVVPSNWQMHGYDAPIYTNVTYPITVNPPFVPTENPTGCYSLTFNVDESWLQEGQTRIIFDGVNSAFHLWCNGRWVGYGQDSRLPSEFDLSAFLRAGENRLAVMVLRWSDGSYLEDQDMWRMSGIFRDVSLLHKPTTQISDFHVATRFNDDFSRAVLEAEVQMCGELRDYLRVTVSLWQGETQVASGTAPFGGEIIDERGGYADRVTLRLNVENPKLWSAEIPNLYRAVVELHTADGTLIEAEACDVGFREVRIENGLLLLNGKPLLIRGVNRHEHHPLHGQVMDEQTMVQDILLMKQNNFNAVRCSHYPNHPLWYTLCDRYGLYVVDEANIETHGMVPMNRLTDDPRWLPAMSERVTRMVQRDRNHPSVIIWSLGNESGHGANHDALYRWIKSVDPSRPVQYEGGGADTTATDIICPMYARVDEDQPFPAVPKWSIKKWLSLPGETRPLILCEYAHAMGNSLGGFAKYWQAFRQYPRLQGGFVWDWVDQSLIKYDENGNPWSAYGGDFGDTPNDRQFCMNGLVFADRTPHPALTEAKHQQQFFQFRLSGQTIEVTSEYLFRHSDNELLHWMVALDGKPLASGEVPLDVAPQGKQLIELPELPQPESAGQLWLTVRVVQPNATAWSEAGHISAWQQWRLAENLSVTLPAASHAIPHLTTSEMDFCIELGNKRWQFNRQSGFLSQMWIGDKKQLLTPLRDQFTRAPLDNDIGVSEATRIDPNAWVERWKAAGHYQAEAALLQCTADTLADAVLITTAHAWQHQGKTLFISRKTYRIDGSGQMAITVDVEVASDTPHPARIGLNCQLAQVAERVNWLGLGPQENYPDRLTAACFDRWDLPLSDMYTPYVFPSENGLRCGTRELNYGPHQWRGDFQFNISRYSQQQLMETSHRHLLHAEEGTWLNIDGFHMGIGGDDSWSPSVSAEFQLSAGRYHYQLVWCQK

Nonstructural protein 1 = Nonstructural protein 1 (Influenza A virus, UniProt Q194T2); type: functional, Influenza A virus (A/California/07/2009(H1N1))
Nonstructural protein 1, sequence (Q194T2 whole entry): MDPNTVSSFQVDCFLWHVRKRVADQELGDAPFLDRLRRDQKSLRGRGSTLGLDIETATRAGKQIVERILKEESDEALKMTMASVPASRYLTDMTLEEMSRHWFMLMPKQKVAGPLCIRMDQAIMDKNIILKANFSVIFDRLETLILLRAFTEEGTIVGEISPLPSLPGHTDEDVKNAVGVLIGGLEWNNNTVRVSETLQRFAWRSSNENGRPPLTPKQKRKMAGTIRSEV

G-protein coupled receptor 35, sequence (Q9HC97 whole entry): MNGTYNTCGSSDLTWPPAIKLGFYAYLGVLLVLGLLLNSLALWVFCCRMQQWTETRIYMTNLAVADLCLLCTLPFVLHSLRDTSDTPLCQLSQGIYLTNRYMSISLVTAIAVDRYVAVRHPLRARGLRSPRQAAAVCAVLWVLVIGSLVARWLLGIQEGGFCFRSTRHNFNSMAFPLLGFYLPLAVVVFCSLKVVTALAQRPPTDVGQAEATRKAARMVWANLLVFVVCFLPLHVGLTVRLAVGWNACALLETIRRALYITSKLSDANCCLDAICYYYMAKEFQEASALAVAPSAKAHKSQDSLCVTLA

SMILES: COC(=O)c1cnn(-c2ccccc2)c1/C=N/NC(=S)Nc1ccccc1
- IC50 [1]: 1.01 µM (active)
- IC50 [2]: 15.1 µM (inactive)

SMILES: Cn1nc([N+](=O)[O-])nc1Sc1nnc(-c2ccccc2)o1
- EC50 [3]: > 120 µM (not active)
- EC50 (BJ [4]): 3.15 µM (active)
- EC50 [5]: > 120 µM (not active)
- EC50 [6]: 10.2 µM (active)
- EC50 (BJ [7]): 2.52 µM (active)
- IC50 (J774.A1): 0.438 µM (active)
- EC50 (BJ [8]): 43.9 µM (inconclusive)
- EC50 [9]: 11.1 µM (active)
- IC50 [10]: 6.19 µM (active)
- IC50 [11]: > 80 µM (inactive)
- AC50 [12]: 40.3 µM (active)
- EC50 (BJ [13]): 0.556 µM (active)
- EC50 (Protein RecA): 10.9 µM (active)

SMILES: CCN1/C(=C/C=C/C=C/c2sc3ccccc3[n+]2CC)Sc2ccccc21 [DITHIAZANINE IODIDE]
- EC50 (BJ [4]): 1.7 µM (inconclusive)
- EC50 (BJ [7]): 2.04 µM (inconclusive)
- EC50 (BJ [8]): 3 µM (inconclusive)
- EC50 [9]: 1.68 µM (inconclusive)
- IC50 (Saccharomyces cerevisiae): > 100 µM (inactive)
- IC50 [14]: 19.5 µM (active)

SMILES: Cc1n[nH]c(=S)n(NC(=O)CC(=O)Nn2c(=S)[nH]nc(C)c2=O)c1=O
- EC50 [15]: > 150 µM (inactive)
- EC50 [16]: 4.66 µM (active)
- IC50 [17]: > 50 µM (not active)
- IC50 [18]: > 50 µM (not active)
- IC50 (Beta-galactosidase): > 66.6 µM (inactive)
- IC50 (Nonstructural protein 1): 6.42 µM (active)
